ChEMBL document CHEMBL4184184, “Lead identification and optimization of bacterial glutamate racemase inhibitors” (Bioorg Med Chem, 2018)
Converted amounts (≈) assume the structure as drawn. The source made the active and inactive calls. The rule behind the calls is not given here.

Experiments:
[1] = tested on: Mycobacterium tuberculosis; assay: Antibacterial activity against Mycobacterium tuberculosis H37Rv after 1 week by MABA; format: functional; conditions: 168 h
[2] = Cytotoxicity against mouse RAW264.7 cells assessed as growth inhibition at 25 uM after 48 hrs by MTT assay relative to control; format: cell-based; conditions: read-out: GI
[3] = tested on: Mycobacterium tuberculosis; assay: Antibacterial activity against non replicating Mycobacterium tuberculosis H37Rv assessed as log reduction in bacterial count at 10 ug/ml incubated for 7 days followed by compound dilution measured after 4 weeks; format: functional
[4] = tested on: Mycobacterium tuberculosis; assay: Antibacterial activity against Mycobacterium tuberculosis H37Rv after 1 week in presence of efflux pump inhibitor verapamil by MABA; format: functional; conditions: 168 h
[5] = tested on: Mycobacterium tuberculosis; assay: Antibacterial activity against Mycobacterium tuberculosis H37Rv after 1 week in presence of efflux pump inhibitor piperine by MABA; format: functional; conditions: 168 h
[6] = tested on: Mycobacterium tuberculosis; assay: Ratio of MBC to MIC for Mycobacterium tuberculosis H37Rv; format: functional
[7] = tested on: Mycobacterium tuberculosis; assay: Bacteriostatic activity against Mycobacterium tuberculosis H37Rv at 5 to 20 uM incubated up to 21 days; format: functional, organism-based
[8] = tested on: Mycobacterium tuberculosis; assay: Antibiofilm activity against Mycobacterium tuberculosis H37Rv at 10 ug/ml after 1 week; format: functional
[9] = tested on: Mycobacterium tuberculosis; assay: Bactericidal activity against Mycobacterium tuberculosis H37Rv incubated up to 21 days; format: functional, organism-based
[10] = tested on: Mycobacterium tuberculosis; assay: Bacteriostatic activity against Mycobacterium tuberculosis H37Rv assessed as reduction in bacterial count at 25 uM incubated up to 21 days relative to control; format: functional
[11] = target: T1, Glutamate racemase (Mycobacterium tuberculosis (strain ATCC 25618 / H37Rv)) (UniProt P9WPW9); assay: Binding affinity to Mycobacterium tuberculosis glutamate racemase assessed as change in melting temperature by SYPRO orange dye based fluorescence assay
T1 sequence (whole entry): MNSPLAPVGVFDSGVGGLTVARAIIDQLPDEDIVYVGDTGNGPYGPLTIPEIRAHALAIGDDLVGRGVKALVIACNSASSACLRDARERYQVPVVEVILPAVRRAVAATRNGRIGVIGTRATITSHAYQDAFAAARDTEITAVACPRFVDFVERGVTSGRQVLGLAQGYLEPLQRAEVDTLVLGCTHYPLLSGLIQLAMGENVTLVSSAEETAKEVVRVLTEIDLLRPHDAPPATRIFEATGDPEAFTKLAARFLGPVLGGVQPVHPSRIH

[12] = target: T1, Glutamate racemase (Mycobacterium tuberculosis (strain ATCC 25618 / H37Rv)); assay: Non-competitive inhibition of Mycobacterium tuberculosis glutamate racemase assessed as change in melting temperature by SYPRO orange dye based fluorescence assay
[13] = target: T1, Glutamate racemase (Mycobacterium tuberculosis (strain ATCC 25618 / H37Rv)); assay: Non-competitive inhibition of Mycobacterium tuberculosis glutamate racemase assessed as change in melting temperature in presence of substrate D-glutamate by SYPRO orange dye based fluorescence assay
[14] = tested on: Mycobacterium marinum; assay: Antibacterial activity against Mycobacterium marinum ATCC BAA-535 infected in zebra fish assessed as log reduction in bacterial load at 10 mg/kg, po for 7 days; format: functional
[15] = tested on: Mycobacterium marinum; assay: Antibacterial activity against Mycobacterium marinum ATCC BAA-535 infected in zebra fish assessed as log reduction in bacterial load at 5 mg/kg, po for 7 days; format: functional

Row | Compound | MIC [1] [µM] | inhibition at 48 h, 25 µM [2] [%] | MIC [4] [µM] | MIC [5] [µM] | other results
1 | O=C(Nc1ccc(F)cc1)Nc1cccc(-c2nc3cc(C(F)(F)F)ccc3s2)c1 | 57.9 (≈ 25 µg/mL) | 97.7 |  |  | 
2 | Fc1ccc(NC(=S)Nc2cccc(-c3nc4cc(C(F)(F)F)ccc4s3)c2)cc1 | 27.9 (≈ 12.5 µg/mL) | 76.3 | 7.01 | 27.9 | log(activity) [3]: 2.1; Ratio [6]: >4; Activity [7]: Active
3 | O=C(Nc1ccccc1)Nc1cccc(-c2nc3ccccc3s2)c1 | 72.9 (≈ 25.2 µg/mL) | 97.2 |  |  | 
4 | Cc1ccc(NC(=S)Nc2cccc(-c3nc4cc(C(F)(F)F)ccc4s3)c2)cc1 | 28.3 (≈ 12.5 µg/mL) | 97.1 |  |  | 
5 | FC(F)(F)c1ccc2sc(-c3cccc(NC(=S)Nc4ccccc4)c3)nc2c1 | 14.7 (≈ 6.3 µg/mL) | 28.1 | 1.84 | 14.6 | 
6 | COc1ccc(NC(=O)Nc2cccc(-c3nc4ccccc4s3)c2)cc1 | 33.3 (≈ 12.5 µg/mL) | 56.1 |  |  | 
7 | Fc1ccc(NC(=S)Nc2cccc(-c3nc4ccccc4s3)c2)cc1 | 2.15 (≈ 0.816 µg/mL) | 98.2 | 2.15 | 2.15 | 
8 | S=C(Nc1ccc(Cl)cc1)Nc1cccc(-c2nc3ccccc3s2)c1 | 2.09 (≈ 0.828 µg/mL) | 58.4 |  |  | 
9 | O=C(Nc1ccc([N+](=O)[O-])cc1)Nc1cccc(-c2nc3ccccc3s2)c1 | 8.09 (≈ 3.16 µg/mL) | 42.1 | 2.04 | 8.09 | log(activity) [8]: 0.7; Activity [9]: Dose-dependent effect; log(activity) [3]: 2.1; Ratio [6]: <4; fold change (FC) [10]: >3
10 | O=C(Nc1ccc(F)cc1)Nc1cccc(-c2nc3ccccc3s2)c1 |  |  |  |  | ΔTm [11]: 3.3 °C
11 | O=C(Nc1ccc(Cl)cc1)Nc1cccc(-c2nc3ccccc3s2)c1 | 65.9 (≈ 25 µg/mL) | 30.1 |  |  | 
12 | CO[C@H]1/C=C/O[C@@]2(C)Oc3c(C)c(O)c4c(O)c(c(/C=N/N5CCN(C)CC5)c(O)c4c3C2=O)NC(=O)/C(C)=C\C=C\[C@H](C)[C@H](O)[C@@H](C)[C@@H](O)[C@@H](C)[C@H](OC(C)=O)[C@@H]1C [RIFAMPIN] | 0.15 (≈ 0.123 µg/mL) |  | 0.15 | 0.15 | log(activity) [8]: 1.2; log(activity) [3]: 0.5
13 | S=C(Nc1ccccc1)Nc1cccc(-c2nc3ccccc3s2)c1 | 69.2 (≈ 25 µg/mL) | 2.35 |  |  | 
14 | FC(F)(F)c1ccc2sc(-c3cccc(NC(=S)NCc4ccccc4)c3)nc2c1 | 14.7 (≈ 6.52 µg/mL) | 96.1 |  |  | log(activity) [8]: 1.8; log(activity) [3]: 2.1; Ratio [6]: >4; Activity [7]: Active
15 | Cc1ccc(NC(=S)Nc2cccc(-c3nc4ccccc4s3)c2)cc1 | 16.6 (≈ 6.24 µg/mL) | 17.5 | 8.29 | 16.6 | log(activity) [8]: 2; ΔTm [12]: 3.9 °C; log(activity) [3]: 2.1; Ratio [6]: >4; ΔTm [13]: 4.7 °C; log(activity) [14]: 3.5; Activity [7]: Active
16 | N[C@H](CCC(=O)O)C(=O)O |  |  |  |  | ΔTm [11]: 2.4 °C
17 | COc1ccc(NC(=O)Nc2cccc(-c3nc4cc(C(F)(F)F)ccc4s3)c2)cc1 | 56.4 (≈ 25 µg/mL) | 59.1 |  |  | 
18 | CC[C@@H](CO)NCCN[C@@H](CC)CO [ETHAMBUTOL] | 7.64 (≈ 1.56 µg/mL) |  | 3.82 | 3.82 | 
19 | NNC(=O)c1ccncc1 [ISONIAZID] | 0.72 (≈ 0.0987 µg/mL) |  | 0.72 | 0.72 | log(activity) [8]: 1; log(activity) [3]: 1.1; log(activity) [15]: 2.6
20 | Cc1ccc(NC(=O)Nc2cccc(-c3nc4ccccc4s3)c2)cc1 | 69.7 (≈ 25 µg/mL) | 31.2 | 2.17 | 69.7 | 
21 | O=C(Nc1ccc(Cl)cc1)Nc1cccc(-c2nc3cc(C(F)(F)F)ccc3s2)c1 | 55.9 (≈ 25 µg/mL) | 45.7 |  |  | 
22 | O=[N+]([O-])c1ccc(NC(=S)Nc2cccc(-c3nc4ccccc4s3)c2)cc1 | 61.6 (≈ 25 µg/mL) | 98.2 |  |  | 
23 | COc1c(N2C[C@@H]3CCCN[C@@H]3C2)c(F)cc2c(=O)c(C(=O)O)cn(C3CC3)c12 [MOXIFLOXACIN] |  |  |  |  | log(activity) [8]: 1.8; Activity [3]: Active; log(activity) [14]: 2.5
24 | O=[N+]([O-])c1ccc(NC(=S)Nc2cccc(-c3nc4cc(C(F)(F)F)ccc4s3)c2)cc1 | 52.7 (≈ 25 µg/mL) | 18.4 | 3.34 | 52.7 | 
25 | Cc1ccc(NC(=O)Nc2cccc(-c3nc4cc(C(F)(F)F)ccc4s3)c2)cc1 | 58.6 (≈ 25 µg/mL) | 22.5 |  |  | 
26 | O=C(Nc1ccc([N+](=O)[O-])cc1)Nc1cccc(-c2nc3cc(C(F)(F)F)ccc3s2)c1 | 54.7 (≈ 25.1 µg/mL) | 99.2 |  |  | 
27 | FC(F)(F)c1ccc2sc(-c3cccc(NC(=S)Nc4ccc(Cl)cc4)c3)nc2c1 | 53.9 (≈ 25 µg/mL) | 97.3 |  |  | 
28 | S=C(NCc1ccccc1)Nc1cccc(-c2nc3ccccc3s2)c1 | 66.6 (≈ 25 µg/mL) | 32.2 | 2.12 | 66.6 | 
29 | O=C(Nc1ccccc1)Nc1cccc(-c2nc3cc(C(F)(F)F)ccc3s2)c1 | 3.76 (≈ 1.55 µg/mL) | 40 |  |  | 
